Measurements as given in patent US20010053333A1, “Antimicrobial flash-dry disinfectant aerosol” (priority 2000, published 2001).

Assay: Evaporation time for various aerosol sterilizer
Format: physicochemical
From the text: Evaporation Time for Various Aerosol Sterilizer

With `O` [H2O] the “Evaporation Time: state” value (1 minute) was “wet”, the “Evaporation Time: state” value (2 minutes) was “wet” and the “Evaporation Time: state” value (5 minutes) was “humid”. The “Evaporation Time: state” value (15 minutes) was “droplets”, the “Evaporation Time: state” value (30 minutes) was “droplets” and the “Evaporation Time: state” value (40 minutes) was “droplets”. The “Evaporation Time: state” value (45 minutes) was “dry”.
